Patent publication US20230148214A1, “INDAZOLES AND AZAINDAZOLES AS LRRK2 INHIBITORS” (ESCAPE Bio, Inc., priority 2020, published 2023)

How the values were obtained:
LRRK2 WT = target: T1, LRRK2 WT (Homo sapiens, UniProt Q5S007); assay: LRRK2 Kinase Activity Assay (LanthaScreen TR-FRET), wild type; type: biochemical; conditions: recombinant wild type LRRK2, 25 μM ATP, 400 nM LRRKtide, 60 min; class symbols
T1 construct: purchased Life Technologies PR8604B
How it was run: (§1)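 Recombinant wild-type or G2019S LRRK2 incubated with fluorescein-labeled LRRKtide (ERM-based) peptide, ATP and serially diluted compound for 60 min at room temperature.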

LRRK2 G2019S = target: T2, LRRK2 G2019S (Homo sapiens, UniProt Q5S007, G2019S); assay: LRRK2 Kinase Activity Assay (LanthaScreen TR-FRET), G2019S; type: biochemical; conditions: recombinant G2019S-LRRK2, 25 μM ATP, 400 nM LRRKtide, 60 min; class symbols
T2 construct: purchased Life Technologies PV4881
How it was run: as §1

T2 sequence (Q5S007 whole entry G2019S): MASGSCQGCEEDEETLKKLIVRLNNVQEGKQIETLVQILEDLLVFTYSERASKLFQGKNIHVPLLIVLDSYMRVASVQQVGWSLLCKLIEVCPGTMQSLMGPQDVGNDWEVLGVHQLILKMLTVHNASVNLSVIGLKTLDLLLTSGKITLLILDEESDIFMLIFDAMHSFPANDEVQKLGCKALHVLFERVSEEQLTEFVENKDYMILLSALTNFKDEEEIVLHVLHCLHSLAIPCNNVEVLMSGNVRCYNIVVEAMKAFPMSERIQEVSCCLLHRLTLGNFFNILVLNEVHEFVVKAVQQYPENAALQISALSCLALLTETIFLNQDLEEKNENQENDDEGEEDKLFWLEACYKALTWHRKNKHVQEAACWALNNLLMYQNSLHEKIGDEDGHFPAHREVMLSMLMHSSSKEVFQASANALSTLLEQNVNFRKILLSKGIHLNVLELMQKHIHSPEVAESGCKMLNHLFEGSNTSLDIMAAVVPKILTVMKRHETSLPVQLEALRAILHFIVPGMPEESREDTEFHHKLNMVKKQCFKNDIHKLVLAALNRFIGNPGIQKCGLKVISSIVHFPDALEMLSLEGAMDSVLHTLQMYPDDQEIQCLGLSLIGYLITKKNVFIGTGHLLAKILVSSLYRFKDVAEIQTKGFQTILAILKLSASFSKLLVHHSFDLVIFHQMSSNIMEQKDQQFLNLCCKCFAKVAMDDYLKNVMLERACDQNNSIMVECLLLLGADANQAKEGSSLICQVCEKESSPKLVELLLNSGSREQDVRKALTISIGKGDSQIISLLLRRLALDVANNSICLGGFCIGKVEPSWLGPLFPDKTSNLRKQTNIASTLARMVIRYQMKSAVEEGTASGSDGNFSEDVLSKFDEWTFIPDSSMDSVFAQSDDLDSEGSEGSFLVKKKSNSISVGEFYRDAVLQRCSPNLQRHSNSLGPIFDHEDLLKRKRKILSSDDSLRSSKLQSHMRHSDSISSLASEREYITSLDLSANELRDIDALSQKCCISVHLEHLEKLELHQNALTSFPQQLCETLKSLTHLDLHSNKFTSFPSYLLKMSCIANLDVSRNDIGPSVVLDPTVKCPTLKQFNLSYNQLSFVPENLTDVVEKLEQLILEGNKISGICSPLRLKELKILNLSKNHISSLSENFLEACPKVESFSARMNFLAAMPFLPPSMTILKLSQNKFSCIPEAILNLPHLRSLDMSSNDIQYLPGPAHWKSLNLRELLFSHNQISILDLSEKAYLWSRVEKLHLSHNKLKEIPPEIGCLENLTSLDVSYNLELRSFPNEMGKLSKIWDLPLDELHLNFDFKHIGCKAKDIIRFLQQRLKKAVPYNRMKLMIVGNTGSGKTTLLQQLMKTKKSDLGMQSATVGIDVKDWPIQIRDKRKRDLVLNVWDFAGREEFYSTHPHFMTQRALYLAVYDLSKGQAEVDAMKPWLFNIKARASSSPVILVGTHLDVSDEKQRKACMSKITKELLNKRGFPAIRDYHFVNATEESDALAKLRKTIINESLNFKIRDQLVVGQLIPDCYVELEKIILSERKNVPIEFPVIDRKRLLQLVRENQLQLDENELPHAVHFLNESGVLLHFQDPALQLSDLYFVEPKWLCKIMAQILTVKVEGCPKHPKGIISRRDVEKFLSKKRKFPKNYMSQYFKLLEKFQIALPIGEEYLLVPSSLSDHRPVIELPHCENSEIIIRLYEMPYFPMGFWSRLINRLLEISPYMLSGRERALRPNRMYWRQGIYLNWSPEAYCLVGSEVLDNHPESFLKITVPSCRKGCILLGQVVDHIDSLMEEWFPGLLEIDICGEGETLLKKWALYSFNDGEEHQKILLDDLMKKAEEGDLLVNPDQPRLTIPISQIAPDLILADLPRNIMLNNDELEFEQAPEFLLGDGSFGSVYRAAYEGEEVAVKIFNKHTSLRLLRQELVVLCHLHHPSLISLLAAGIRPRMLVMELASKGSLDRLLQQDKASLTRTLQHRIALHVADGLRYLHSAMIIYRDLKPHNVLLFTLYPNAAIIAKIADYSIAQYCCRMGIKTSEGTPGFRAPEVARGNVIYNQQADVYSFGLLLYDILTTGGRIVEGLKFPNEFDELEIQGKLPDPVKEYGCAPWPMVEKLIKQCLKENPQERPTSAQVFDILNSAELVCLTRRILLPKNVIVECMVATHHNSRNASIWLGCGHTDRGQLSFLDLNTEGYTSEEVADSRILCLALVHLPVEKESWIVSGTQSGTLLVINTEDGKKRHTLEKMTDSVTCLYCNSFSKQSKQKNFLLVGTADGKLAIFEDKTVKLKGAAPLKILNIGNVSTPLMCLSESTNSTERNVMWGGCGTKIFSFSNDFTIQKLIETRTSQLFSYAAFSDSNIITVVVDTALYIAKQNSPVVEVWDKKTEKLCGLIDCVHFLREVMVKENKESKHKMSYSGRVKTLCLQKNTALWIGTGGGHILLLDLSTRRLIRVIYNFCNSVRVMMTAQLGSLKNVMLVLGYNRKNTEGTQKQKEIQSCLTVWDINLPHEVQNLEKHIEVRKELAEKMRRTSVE
T1 sequence (Q5S007 whole entry): as the sequence (Q5S007 whole entry G2019S) above, with S2019G counted along it

| SMILES | IC50 (LRRK2 WT) [nM] | IC50 (LRRK2 G2019S) [nM] |
| --- | --- | --- |
| C[C@H]1C[C@@H](Nc2ccc3[nH]nc(-c4cnco4)c3c2)c2ccc(C#N)cc21 (single isomer, unassigned) [Example 169, enantiomer 1, cis-3-Methyl-1-[[3-(1,3-oxazol-5-yl)-1H-indazol-5-yl]amino]-2,3-dihydro-1H-indene-5-carbonitrile] | 100 to 1000 | < 100 |
| Cc1nc2c(c(C)c1C#N)CC[C@@H]2Nc1ccc2[nH]nc(-c3cnco3)c2c1 (single isomer, unassigned) [Example 170, enantiomer 1, 2,4-Dimethyl-7-[[3-(1,3-oxazol-5-yl)-1H-indazol-5-yl]amino]-6,7-dihydro-5H-cyclopenta[b]pyridine-3-carbonitrile] | < 100 | < 100 |
| Cc1nc2c(c(C)c1C#N)CC[C@@H]2Nc1ccc2[nH]nc(-c3cnco3)c2c1 (single isomer, unassigned) [Example 170, enantiomer 2, 2,4-Dimethyl-7-[[3-(1,3-oxazol-5-yl)-1H-indazol-5-yl]amino]-6,7-dihydro-5H-cyclopenta[b]pyridine-3-carbonitrile] | 100 to 1000 | < 100 |
| N#Cc1cc2c(nc1Cl)[C@@H](Oc1ccc3[nH]nc(-c4cnco4)c3c1)CC2 (single isomer, unassigned) [Example 171, enantiomer 1, 2-Chloro-7-[[3-(1,3-oxazol-5-yl)-1H-indazol-5-yl]oxy]-6,7-dihydro-5H-cyclopenta[b]pyridine-3-carbonitrile] | < 100 | < 100 |
| N#Cc1ccc2c(c1)CCC2Nc1ccc2[nH]nc(-c3ccoc3)c2c1 (stereo not drawn) [Example 10, 1-((3-(Furan-3-yl)-1H-indazol-5-yl)amino)-2,3-dihydro-1H-indene-5-carbonitrile] | 100 to 1000 | < 100 |
| N#Cc1ccc2c(c1)CC[C@@H]2Oc1ccc2[nH]nc(I)c2c1 [Example 13, 1-((3-Iodo-1H-indazol-5-yl)oxy)-2,3-dihydro-1H-indene-5-carbonitrile] | 100 to 1000 | < 100 |
| N#Cc1ccc2c(c1)CCC[C@@H]2Nc1ccc2[nH]nc(-c3ccc4ncsc4c3)c2c1 [Example 59, 5-((3-(Benzo[d]thiazol-6-yl)-1H-indazol-5-yl)amino)-5,6,7,8-tetrahydronaphthalene-2-carbonitrile] | < 100 | < 100 |

Now from value to compound:

| IC50 (LRRK2 WT) [nM] | IC50 (LRRK2 G2019S) [nM] | SMILES |
| --- | --- | --- |
| 100 to 1000 | < 100 | C[C@H]1C[C@@H](Nc2ccc3[nH]nc(-c4cnco4)c3c2)c2ccc(C#N)cc21 (single isomer, unassigned) [Example 169, enantiomer 2, cis-3-Methyl-1-[[3-(1,3-oxazol-5-yl)-1H-indazol-5-yl]amino]-2,3-dihydro-1H-indene-5-carbonitrile] |
| 100 to 1000 | 100 to 1000 | CC1(C)Cc2cc(C#N)cnc2[C@H]1Nc1ccc2[nH]nc(-c3cnco3)c2c1 (single isomer, unassigned) [Example 172, enantiomer 1, 6,6-Dimethyl-7-[[3-(1,3-oxazol-5-yl)-1H-indazol-5-yl]amino]-5,7-dihydrocyclopenta[b]pyridine-3-carbonitrile] |
| < 100 | < 100 | CC1(C)Cc2cc(C#N)cnc2[C@H]1Nc1ccc2[nH]nc(-c3cnco3)c2c1 (single isomer, unassigned) [Example 172, enantiomer 2, 6,6-Dimethyl-7-[[3-(1,3-oxazol-5-yl)-1H-indazol-5-yl]amino]-5,7-dihydrocyclopenta[b]pyridine-3-carbonitrile] |
| < 100 | < 100 | C[C@H]1CCc2cc(C#N)ccc2[C@H]1Nc1ccc2[nH]nc(-c3cnco3)c2c1 (single isomer, unassigned) [Example 173, enantiomer 1, cis-6-Methyl-5-((3-(oxazol-5-yl)-1H-indazol-5-yl)amino)-5,6,7,8-tetrahydronaphthalene-2-carbonitrile] |
| 100 to 1000 | < 100 | C[C@H]1CCc2cc(C#N)ccc2[C@H]1Nc1ccc2[nH]nc(-c3cnco3)c2c1 (single isomer, unassigned) [Example 173, enantiomer 2, cis-6-Methyl-5-((3-(oxazol-5-yl)-1H-indazol-5-yl)amino)-5,6,7,8-tetrahydronaphthalene-2-carbonitrile] |
| < 100 | < 100 | C[C@@H]1CCc2cc(C#N)ccc2[C@H]1Nc1ccc2[nH]nc(-c3cnco3)c2c1 (single isomer, unassigned) [Example 174, enantiomer 1, trans-6-Methyl-5-((3-(oxazol-5-yl)-1H-indazol-5-yl)amino)-5,6,7,8-tetrahydronaphthalene-2-carbonitrile] |
| 100 to 1000 | < 100 | C[C@@H]1CCc2cc(C#N)ccc2[C@H]1Nc1ccc2[nH]nc(-c3cnco3)c2c1 (single isomer, unassigned) [Example 174, enantiomer 2, trans-6-Methyl-5-((3-(oxazol-5-yl)-1H-indazol-5-yl)amino)-5,6,7,8-tetrahydronaphthalene-2-carbonitrile] |
| 100 to 1000 | < 100 | N#Cc1cnc2c(c1)CC(F)(F)C2Nc1ccc2[nH]nc(-c3cnco3)c2c1 (stereo not drawn) [Example 34, 6,6-Difluoro-7-((3-(oxazol-5-yl)-1H-indazol-5-yl)amino)-6,7-dihydro-5H-cyclopenta[b]pyridine-3-carbonitrile] |
